Experimental data reported in US20050148534A1, “Small molecule compositions and methods for increasing drug efficiency using compositions thereof” (priority 2003, published 2005).
“And” between values parts separate entries of the source, which are not always exact repeats. Equal entries are not always repeated. Where two headings read alike, the source gives them in different places.

Experiments:
[1] = target: T1, Human thymidine kinase 1 (TK1) (Homo sapiens, UniProt P04183); assay: Thymidine kinase coupled (kinetic) ATP depletion assay; type: biochemical; details: initial velocity relative to thymidine; 100 μM conjugate
T1 construct: His tag (from pET28b(+)) (N); made in house; host or cells: E. coli BL21-codon plus
T1 sequence (P04183 1-234): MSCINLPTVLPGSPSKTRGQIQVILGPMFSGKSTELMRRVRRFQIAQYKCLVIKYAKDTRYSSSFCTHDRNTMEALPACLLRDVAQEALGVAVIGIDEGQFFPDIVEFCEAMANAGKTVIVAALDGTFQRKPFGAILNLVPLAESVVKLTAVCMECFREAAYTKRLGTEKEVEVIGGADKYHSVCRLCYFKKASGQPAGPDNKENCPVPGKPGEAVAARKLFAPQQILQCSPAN
Procedure: Thymidine kinase, viral thymidine kinase, TK-1 deoxycytidine kinase, and deoxyguanosine kinase activities are determined by subjecting a first end of a linker used in synthesizing linker-substrate constructs to a first test. The first test may involve observing ADP formation, an obligatory co-product of phospho group transfer from ATP which is catalyzed by the kinase to the C5′ hydroxyl group or its equivalent in the nucleoside or nucleoside analog. Formation of ADP is followed by a coupled enzyme assay well known in the art. ADP, formed from kinase phosphorylation, is used by pyruvate kinase to generate pyruvate from phosphoenolpyruvate which in turn is converted to lactate by lactate dehydrogenase. The lactate results in the consumption of NADH which is followed spectrophotometrically. The rate of nucleoside phosphorylation is then directly related to the rate of decrease in the observed NADH signal.
TK1 was amplified using PCR with forward primer 5′-[…]-3′ and reverse primer 5′-[…]-3′. The PCR product was digested with Nde I and Hind III. An N-terminal His-tagged TK1 construct, TK1/pET28b(+), was generated by subcloning TK1 into the Nde I and Hind III sites of prokaryotic expression vector pET28b (+) (Novagen, San Diego, Calif.). TK1 was expressed from TK1/pET28b(+) using E. coli strain BL21-codon plus (Stratagene, San Diego, Calif.) and purified by Ni column chromatography.
A coupled (kinetic) ATP depletion assay was developed to measure thymidine kinase activity. The reaction contained 100 mM Tris HCl, pH 7.5, 20 mM MgCl2, 100 mM KCl, 0.4 mM PEP, 0.2 mM NADH, Pyruvate Kinase (0.7 units)/Lactate Dehydrogenase (1.0 unit) (Sigma #PO294), 2.5-10 μg Thymidine Kinase, 100 μM thymidine or thymidine-drug conjugate in a volume of 75 μl. ATP (5 mM in 25 μl H2O) was added to initiate the reaction and the velocity of ATP depletion was monitored at 340 nm continuously for 15 minutes.

[2] = target: T2, TK1 (Homo sapiens, UniProt P04183); details: substrate activity; literature (Johansson et al.; Eriksson et al., BBCR 1991; 176, 586), source per Table 3; cited from earlier work
T2 sequence (P04183 1-234): T1 sequence (P04183 1-234)

[3] = target: T3, TK2 (Homo sapiens, UniProt O00142); parameters: unit not given here; details: substrate activity, literature (Johansson et al.; Eriksson et al.; Wang et al.), source per Table 3, cited from earlier work
T3 sequence (O00142 34-265): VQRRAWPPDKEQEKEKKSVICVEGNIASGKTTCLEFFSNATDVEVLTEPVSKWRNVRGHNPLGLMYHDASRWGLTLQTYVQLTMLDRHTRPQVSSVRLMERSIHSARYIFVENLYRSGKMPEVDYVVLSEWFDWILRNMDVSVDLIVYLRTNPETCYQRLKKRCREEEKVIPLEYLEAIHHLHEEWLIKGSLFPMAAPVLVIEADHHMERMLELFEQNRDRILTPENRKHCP

[4] = target: deoxycytidine kinase (dCK) (Homo sapiens, UniProt P27707); details: substrate activity; literature (Johansson et al.; Eriksson et al.; Wang et al.), source per Table 3; cited from earlier work
Sequence of deoxycytidine kinase (dCK) (P27707 whole entry, species assumed): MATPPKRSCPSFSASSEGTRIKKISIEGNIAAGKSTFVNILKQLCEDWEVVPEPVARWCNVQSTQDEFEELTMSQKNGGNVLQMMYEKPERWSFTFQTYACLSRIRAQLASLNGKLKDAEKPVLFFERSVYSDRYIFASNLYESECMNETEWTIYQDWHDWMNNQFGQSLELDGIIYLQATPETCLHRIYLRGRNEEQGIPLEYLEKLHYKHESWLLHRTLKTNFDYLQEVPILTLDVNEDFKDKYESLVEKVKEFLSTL

[5] = test system: tubulin; assay: Fluorescence-based microtubule polymerization assay (MPA); type: biochemical; details: mean percentage of paclitaxel or vinblastine activity; 0.75-10 micromolar
Source text: Drug-linker constructs may further be screened using functional assays predictive of biological activity. […] Tubulin assembly or inhibition thereof may be monitored by fluorescence using the CytoDYNAMIX Screen™ 10 kit available from Cytoskeleton (1830 S. Acoma St., Denver, Colo.). […] Emission is monitored at 405 nm with excitation at 360 nm. […] Tubulin assembly or inhibition may also be monitored by light scattering which is approximated by the apparent absorption at 350 nm. For paclitaxel drug conjugates BSA is employed to prevent aggregation and glycerol, which is a tubulin polymerization enhancer, is omitted from the kit to increase the signal to noise ratio.
The assay kit (#BK011) was purchased from Cytoskeleton (Denver, Colo.). The assays were carried out according to the manufacturer's instructions, except that 1 mg/ml BSA (Sigma #A3059) was included in all assays. […] Parent drugs and conjugates were tested at 0.75, 1.5, 3 and 10 micromolar final concentration and results represent a comparison of conjugate and parent drug curves obtained from the linear range of the dose responses.

| SMILES | TK1 [2] | TK2 [3] | dCK [4] | also measured |
| --- | --- | --- | --- | --- |
| COc1cccc2c1C(=O)c1c(O)c3c(c(O)c1C2=O)C[C@@](O)(C(=O)CO)C[C@@H]3O[C@H]1C[C@H](NCCCN2C(=O)CC(SCCC(=O)NCCOCCOCCOCCn3c(=O)c(C)cn([C@H]4C[C@H](O)[C@@H](CO)O4)c3=O)C2=O)[C@H](O)[C@H](C)O1.O=C(O)C(F)(F)F (stereo partly drawn) [DOX-3′Alk-[MALaPEG](22)-N3-THY] |  |  |  | Ave. TK1 Kinase Act. [1]: A (A<20) |
| Nc1ccn([C@H]2C[C@H](O)[C@@H](CO)O2)c(=O)n1 [R4 = H, R5 = H, R3 = OH (dC), dC] | <1 | 90 |  | TK2 ([3]; listed as R2 = H, X = C (dC)): 90; TK2 ([3]; listed as R4 = H, R5 = H, R2 = H (dC)): 90; TK2 ([3]; listed as β-D-dC): 93 |
| O=c1[nH]c(=O)n([C@@H]2O[C@H](CO)[C@@H](O)[C@@H]2F)cc1I [R2 = I, R5 = F (FIAU), FIAU] | 42 | 90 |  |  |
| Cc1cn([C@H]2C[C@H](CN=[N+]=[N-])[C@@H](CO)O2)c(=O)[nH]c1=O [R4 = H, R3 = CH2N3] | 15 | 3 |  |  |
| Cc1cn([C@H]2C[C@H](N=[N+]=[N-])[C@@H](CO)O2)c(=O)[nH]c1=O [R4 = H, R3 = N3 (AZT), AZT] | 50 and 40 | 5 | <1 |  |
| O=c1ccn([C@H]2CC[C@@H](CO)O2)c(=O)[nH]1 [R2 = H, R4 = H, R3 = H (ddU), ddU] | 10 | 2 | <1 |  |
| CC[C@]1(O)C[C@@H]2CN(CCc3c([nH]c4ccccc34)[C@@](C(=O)OC)(c3cc4c(cc3OC)N(C)[C@H]3[C@@](O)(C(=O)NCCCCCCn5c(=O)c(C)cn([C@H]6C[C@H](O)[C@@H](CO)O6)c5=O)[C@H](O)[C@]5(CC)C=CCN6CC[C@]43[C@@H]65)C2)C1 [VBL-3Am-ALK(6)-N3-THY] |  |  |  | Ave. TK1 Kinase Act. [1]: A (A<20); Ave. MPA Act [5]: B (B=60-100) |
| Nc1ccn([C@@H]2O[C@H](CO)[C@@H](O)[C@@H]2O)c(=O)n1 [R4 = H, R5 = OH, R3 = OH (Cytosar, AraC), AraC] | <1 | <1 |  |  |
| Nc1cc[nH]c(=O)n1 [R4 = OH, R5 = H, R2 = H (Cytosine), Cytosine] | <1 | <1 | 20 |  |
| CC(=O)O[C@@]12CO[C@@H]1C[C@H](O)[C@@]1(C)C(=O)[C@H](OC(=O)NCCCCCCn3c(=O)c(C)cn([C@@H]4C[C@H](O)[C@@H](CO)O4)c3=O)C3=C(C)[C@@H](OC(=O)[C@H](O)[C@@H](NC(=O)c4ccccc4)c4ccccc4)C[C@@](O)([C@@H](OC(=O)c4ccccc4)[C@H]21)C3(C)C [PXL-10Ca-ALK(6)-N3-αTHY] |  |  |  | Ave. TK1 Kinase Act. [1]: A (A<20); Ave. MPA Act [5]: B (B=60-100) |
| CC(=O)O[C@@]12CO[C@@H]1C[C@H](O)[C@@]1(C)C(=O)[C@H](OC(=O)NCCOCCOCCOCCn3c(=O)c(C)cn([C@@H]4C[C@H](O)[C@@H](CO)O4)c3=O)C3=C(C)[C@@H](OC(=O)[C@H](O)[C@@H](NC(=O)c4ccccc4)c4ccccc4)C[C@@](O)([C@@H](OC(=O)c4ccccc4)[C@H]21)C3(C)C [PXL-10Ca-PEG(11)-N3-αTHY] |  |  |  | Ave. TK1 Kinase Act. [1]: A (A<20); Ave. MPA Act [5]: B (B=60-100) |
| CC(=O)O[C@@]12CO[C@@H]1C[C@H](O)[C@@]1(C)C(=O)[C@H](OC(=O)NCCOCCn3c(=O)c(C)cn([C@@H]4C[C@H](O)[C@@H](CO)O4)c3=O)C3=C(C)[C@@H](OC(=O)[C@H](O)[C@@H](NC(=O)c4ccccc4)c4ccccc4)C[C@@](O)([C@@H](OC(=O)c4ccccc4)[C@H]21)C3(C)C [PXL-10Ca-PEG(5)-N3-αTHY] |  |  |  | Ave. TK1 Kinase Act. [1]: A (A<20); Ave. MPA Act [5]: B (B=60-100) |
| O=c1[nH]c(=O)n([C@H]2C[C@H](O)[C@@H](CO)O2)cc1F [R2 = F, R4 = H, R3 = OH] | 90 | 90 |  |  |
| Cc1cn([C@H]2CC[C@@H](CO)O2)c(=O)[nH]c1=O [R4 = H, R3 = H] | 40 | 4 | <1 |  |
| Cc1cn([C@H]2C[C@H](F)[C@@H](CO)O2)c(=O)[nH]c1=O [R4 = H, R3 = F (FLT), FLT] | 30 | <1 | <1 |  |
| C#C[C@H]1C[C@H](n2cc(C)c(=O)[nH]c2=O)O[C@@H]1CO [R4 = H, R3 = CCH] | <1 | <1 |  |  |
| CC[C@]1(O)C[C@@H]2CN(CCc3c([nH]c4ccccc34)[C@@](C(=O)OC)(c3cc4c(cc3OC)N(C)[C@H]3[C@@](O)(C(=O)NCCCCCCNC(=O)OC(C)(C)C)[C@H](O)[C@]5(CC)C=CCN6CC[C@]43[C@@H]65)C2)C1 [VBL-3Am-ALK(6)-NH(B)] |  |  |  | Ave. MPA Act [5]: A (A<60) |
| Cc1cn([C@@H]2O[C@H](CO)[C@@H](O)[C@@H]2F)c(=O)[nH]c1=O [R2 = CH3, R5 = F (FMAU), FMAU] | 45 | 100 |  |  |
| CCc1cn([C@H]2C[C@H](O)[C@@H](CO)O2)c(=O)[nH]c1=O [R2 = Et, R4 = H, R3 = OH] | 80 | 10 |  |  |
| Cc1cn([C@H]2C[C@H](O)[C@@H](CO)O2)c(=O)[nH]c1=O [R4 = H, R3 = OH (Thy), Thy] | 100 | 100 | 2 |  |
| O=c1[nH]c(=O)n([C@H]2C[C@H](O)[C@@H](CO)O2)cc1Br [R2 = Br, R4 = H, R3 = OH] | 80 | 10 | <1 |  |
| O=c1ccn([C@H]2C[C@H](O)[C@@H](CO)O2)c(=O)[nH]1 [R2 = H, R4 = H, R3 = OH (dU), dU] | 100 | 100 | 6 |  |
| CC(=O)O[C@@]12CO[C@@H]1C[C@H](O)[C@@]1(C)C(=O)[C@H](OC(=O)CCCCCN)C3=C(C)[C@@H](OC(=O)[C@H](O)[C@@H](NC(=O)c4ccccc4)c4ccccc4)C[C@@](O)([C@@H](OC(=O)c4ccccc4)[C@H]21)C3(C)C [PXL-10Es-ALK(5)-NH2] |  |  |  | Ave. MPA Act [5]: B (B=60-100) |
| Cc1cn([C@@H]2O[C@H](CO)[C@@H](O)[C@H]2O)c(=O)[nH]c1=O [R4 = OH, R3 = OH (RiboThymidine), RiboThymidine] | 2 | 3 |  |  |
| CC[C@]1(O)C[C@@H]2CN(CCc3c([nH]c4ccccc34)[C@@](C(=O)OC)(c3cc4c(cc3OC)N(C)[C@H]3[C@@](O)(C(=O)OC)[C@H](O)[C@]5(CC)C=CCN6CC[C@]43[C@@H]65)C2)C1 [Desacetyl vinblastine] |  |  |  | Ave. MPA Act [5]: C (C>100) |
